Results reported in ChEMBL document CHEMBL4138081, “Recent developments of coumarin-containing derivatives and their anti-tubercular activity” (Eur J Med Chem, 2017).
Converted amounts (≈) assume the structure as drawn.

How the values were obtained:
[1] = system: Mycobacterium tuberculosis; experiment: Antimycobacterial activity against Mycobacterium tuberculosis H37Rv ATCC 27294 by BACTEC method; format: functional
[2] = system: Mycobacterium tuberculosis; experiment: Antimycobacterial activity against Mycobacterium tuberculosis H37Rv after 12 to 28 days by Lowenstein and Jensen method; format: functional
[3] = system: Mycobacterium tuberculosis; experiment: Antimycobacterial activity against Mycobacterium tuberculosis H37Rv […] by BACTEC MGIT method; format: functional
[4] = system: Mycobacterium tuberculosis; experiment: Antimycobacterial activity against Mycobacterium tuberculosis H37Rv by MABA; format: functional
[5] = system: Mycobacterium tuberculosis; experiment: Growth inhibition of Mycobacterium tuberculosis H37Rv at 6.25 ug/ml by MABA method relative to control; format: functional; settings: read-out: GI
[6] = system: Mycobacterium tuberculosis; experiment: Antimycobacterial activity against Mycobacterium tuberculosis ATCC 27294 by MABA; format: functional
[7] = system: Mycobacterium tuberculosis; experiment: Antimycobacterial activity against Mycobacterium tuberculosis after 5 days by MABA; format: functional; settings: 120 h
[8] = system: Mycolicibacterium smegmatis; experiment: Antimycobacterial activity against Mycobacterium smegmatis CMCC 93202; format: functional
[9] = system: Mycolicibacterium smegmatis; experiment: Potency index, ratio of MIC for 8-OCH3 ciprofloxacin to MIC for test compound for Mycobacterium smegmatis CMCC 93202; format: functional
[10] = system: Mycolicibacterium smegmatis; experiment: Potency index, ratio of ciprofloxacin MIC to compound MIC for Mycobacterium smegmatis CMCC 93202; format: functional
[11] = system: Mycolicibacterium smegmatis; experiment: Potency index, ratio of MIC for moxifloxacin to MIC for test compound for Mycobacterium smegmatis CMCC 93202; format: functional
[12] = system: Mycolicibacterium smegmatis; experiment: Potency index, ratio of MIC for rifampin to MIC for test compound for Mycobacterium smegmatis CMCC 93202; format: functional
[13] = system: Mycobacterium tuberculosis; experiment: Antimycobacterial activity against Mycobacterium tuberculosis H37Rv after 72 hrs by alamar blue dye-based broth dilution assay; format: functional
[14] = system: Mycobacterium tuberculosis; experiment: Antimycobacterial activity against Mycobacterium tuberculosis H37Rv by broth dilution assay; format: functional
[15] = system: Mycolicibacterium vaccae; experiment: Antimycobacterial activity against Mycolicibacterium vaccae 10670; format: functional
[16] = Cytotoxicity against African green monkey Vero cells by CellTiter 96 non-radioactive cell proliferation assay; format: cell-based; settings: chlorocebus sabaeus, read-out: LD50 (the source's name)
[17] = Selectivity index, ratio of LD50 for African green monkey Vero cells to MIC>99 for Mycobacterium tuberculosis H37Rv; format: toxicity; settings: read-out: Selectivity Index
[18] = system: Mycobacterium tuberculosis; experiment: Antimycobacterial activity against Mycobacterium tuberculosis H37Rv by BACTEC radiometric assay; format: functional

## CCCc1cc(=O)oc2c3c(c4c(c12)OC(C)(C)C=C4)O[C@H](C)[C@@H](C)[C@@H]3O [CALANOLIDE A]
[1]
  MIC: 3.13 µg/mL (≈ 8.45 µM)

## Cn1c(=O)cc(Oc2nc(Nc3ccc(C#N)c(C(F)(F)F)c3)nc(N3CCN(c4ccc(F)cc4)CC3)n2)c2ccccc21
[2]
  MIC: 100 to 1000 µg/mL (≈ 162 to 1620 µM)
[3]
  MIC: > 6.25 µg/mL

## Oc1ccc(-c2cc(-c3ccc(Cl)cc3)nc(/N=c3\ccc4ccccc4o3)n2)cc1
[4]
  MIC: 9.6 to 240 µg/mL (≈ 22.5 to 564 µM)
[5]
  inhibition of growth at 6.25 µg/mL: 70%

## O=C(N/N=C/c1ccc(O)cc1)c1cc2ccccc2oc1=O
[6]
  MIC: 50 to 100 µg/mL (≈ 162 to 324 µM)

## Cc1cc(=O)oc2cc(OCc3cn(Cc4cc(=O)oc5ccc6ccccc6c45)nn3)ccc12
[7]
  MIC: 6.25 µg/mL (≈ 13.4 µM)

## Cn1c(=O)cc(Oc2nc(Nc3ccc(C#N)c(C(F)(F)F)c3)nc(N3CCN(c4cccc(C(F)(F)F)c4)CC3)n2)c2ccccc21
[2]
  MIC: 100 to 1000 µg/mL (≈ 150 to 1500 µM)
[3]
  MIC: > 6.25 µg/mL

## Cn1c(=O)cc(Oc2nc(Nc3ccc(C#N)c(C(F)(F)F)c3)nc(N3CCN(c4ccccc4F)CC3)n2)c2ccccc21
[2]
  MIC: 100 to 1000 µg/mL (≈ 162 to 1620 µM)
[3]
  MIC: > 6.25 µg/mL

## COc1cccc(/C=N/NC(=O)c2cc3ccccc3oc2=O)c1
[6]
  MIC: 50 to 100 µg/mL (≈ 155 to 310 µM)

## Cn1c(=O)cc(Oc2nc(Nc3ccc(C#N)c(C(F)(F)F)c3)nc(N3CCN(c4ccc(C(F)(F)F)cc4)CC3)n2)c2ccccc21
[2]
  MIC: 100 to 1000 µg/mL (≈ 150 to 1500 µM)
[3]
  MIC: > 6.25 µg/mL

## N#Cc1ccc(Nc2nc(Oc3cc(=O)oc4ccccc34)nc(N3CCN(c4ccc(F)cc4)CC3)n2)cc1C(F)(F)F
[2]
  MIC: 100 to 1000 µg/mL (≈ 166 to 1660 µM)
[3]
  MIC: > 6.25 µg/mL

## COc1ccc2cc(C(=O)CN3CCN(c4c(F)cc5c(=O)c(C(=O)O)cn(C6CC6)c5c4OC)CC3)c(=O)oc2c1
[8]
  MIC: 0.25 µg/mL (≈ 0.433 µM)
[9]
  Ratio: 2 - 8
[10]
  Ratio: 2 - 8
[11]
  Ratio: 2 - 8
[12]
  Ratio: 2 - 8

## O=c1oc2ccccc2cc1C(c1cccs1)c1c(O)c2ccccc2oc1=O (stereo unspecified)
[13]
  MIC: 5.22 µM (≈ 2.1 µg/mL)

## O=c1oc2ccccc2cc1-c1cn2nc(C(F)(F)F)sc2n1
[14]
  MIC: 40 µg/mL (≈ 119 µM)

## Cc1ccc2oc(=O)c3c(O)c4cccc(O[C@@H]5O[C@H](C)[C@@H](O)[C@H](O)[C@H]5O[C@@H]5O[C@@H](C)[C@@H](O)[C@@H](O)[C@@H]5O)c4c4oc(=O)c1c2c34
[15]
  MIC: 1.22 µM (≈ 0.764 µg/mL)

## C[C@H]1[C@H](C)Oc2c3c(c4c(-c5ccccc5)cc(=O)oc4c2[C@H]1O)OC(C)(C)C=C3 [SOULATTROLIDE]
[16]
  CC50: > 10 µg/mL
[17]
  selectivity ratio: > 3.2
[18]
  MIC99: 3.13 µg/mL (≈ 7.74 µM)

## Cc1cc(=O)oc2cc(OCc3cn(Cc4cc(=O)oc5ccc(Cl)cc45)nn3)ccc12
[7]
  MIC: 6.25 µg/mL (≈ 13.9 µM)

## COc1ccc(/C=N/NC(=O)c2cc3ccccc3oc2=O)cc1
[6]
  MIC: 50 to 100 µg/mL (≈ 155 to 310 µM)

## N#Cc1ccc(Nc2nc(Oc3cc(=O)oc4ccccc34)nc(N3CCN(c4ccc(C(F)(F)F)cc4)CC3)n2)cc1C(F)(F)F
[2]
  MIC: 100 to 1000 µg/mL (≈ 153 to 1530 µM)
[3]
  MIC: > 6.25 µg/mL

## COc1ccc(-c2cc(-c3ccc(O)cc3)nc(/N=c3\ccc4ccccc4o3)n2)cc1
[4]
  MIC: 9.6 to 240 µg/mL (≈ 22.8 to 569 µM)
[5]
  inhibition of growth at 6.25 µg/mL: 37%

## N#Cc1ccc(Nc2nc(Oc3cc(=O)oc4ccccc34)nc(N3CCN(c4ccccc4F)CC3)n2)cc1C(F)(F)F
[2]
  MIC: 100 to 1000 µg/mL (≈ 166 to 1660 µM)
[3]
  MIC: > 6.25 µg/mL

## Cc1cc2oc(=O)c(C(c3cccs3)c3c(O)c4cc(C)c(C)cc4oc3=O)c(C)c2cc1C (stereo unspecified)
[13]
  MIC: 5.22 µM (≈ 2.47 µg/mL)

## O=C(N/N=C/c1cccc(O)c1)c1cc2ccccc2oc1=O
[6]
  MIC: 50 to 100 µg/mL (≈ 162 to 324 µM)

## O=C(N/N=C/c1ccc([N+](=O)[O-])cc1)c1cc2ccccc2oc1=O
[6]
  MIC: 50 to 100 µg/mL (≈ 148 to 296 µM)

## N#Cc1ccc(Nc2nc(Oc3cc(=O)oc4ccccc34)nc(N3CCN(c4cccc(C(F)(F)F)c4)CC3)n2)cc1C(F)(F)F
[2]
  MIC: 100 to 1000 µg/mL (≈ 153 to 1530 µM)
[3]
  MIC: > 6.25 µg/mL

## NC(=O)c1cnccn1 [PYRAZINAMIDE]
[6]
  MIC: > 100 µg/mL

## Cc1cc(=O)oc2cc(OCc3cn(Cc4cc(=O)oc5cc(Cl)ccc45)nn3)ccc12
[7]
  MIC: 6.25 µg/mL (≈ 13.9 µM)

## COc1ccc(-c2cc(-c3ccc([N+](=O)[O-])cc3)nc(/N=c3\ccc4ccccc4o3)n2)cc1
[4]
  MIC: 9.6 to 240 µg/mL (≈ 21.3 to 533 µM)
[5]
  inhibition of growth at 6.25 µg/mL: 65%

## O=C(N/N=C/c1ccc(O)cc1O)c1cc2ccccc2oc1=O
[6]
  MIC: 50 to 100 µg/mL (≈ 154 to 308 µM)

## O=C(N/N=C/c1cccc(Cl)c1)c1cc2ccccc2oc1=O
[6]
  MIC: 50 to 100 µg/mL (≈ 153 to 306 µM)
